Test results: patent publication US20260108546A1 (ELI LILLY AND COMPANY, priority 2024, published 2026)

Target: T1, hGIP-R (Homo sapiens, UniProt P48546)
T1 construct: expressed in transfected cells; host or cells: HEK-293 clonal cell lines
T1 sequence (P48546 22-466): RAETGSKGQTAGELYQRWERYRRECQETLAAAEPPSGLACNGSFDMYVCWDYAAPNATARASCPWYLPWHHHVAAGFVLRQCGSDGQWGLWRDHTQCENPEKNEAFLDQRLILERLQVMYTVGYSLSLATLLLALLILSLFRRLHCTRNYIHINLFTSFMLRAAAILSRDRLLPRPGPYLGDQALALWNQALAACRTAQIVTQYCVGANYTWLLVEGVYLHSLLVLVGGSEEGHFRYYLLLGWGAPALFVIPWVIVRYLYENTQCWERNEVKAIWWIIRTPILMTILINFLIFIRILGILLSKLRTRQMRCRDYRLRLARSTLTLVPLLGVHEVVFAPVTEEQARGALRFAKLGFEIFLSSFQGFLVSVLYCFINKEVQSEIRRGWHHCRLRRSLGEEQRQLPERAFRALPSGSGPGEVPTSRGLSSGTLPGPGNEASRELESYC
Assay: Functional hGIP-R Assay (cAMP formation, HTRF)
Type: cell-based
Settings: for Emax: cAMP efficacy, percent of maximal response to GIP(1-42)OH, 37° C., 0.1% bovine casein, arithmetic mean ± SEM; for EC50: cAMP potency, HEK-293 cells expressing hGIP-R, incubated at 37° C. in the presence of 0.1% bovine casein, geometric mean, read-out: Human GIP-R EC50, nM (SEM, n)
How it was run: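 HEK-293 cells expressing hGIP-R were given a 20-point compound series in DMEM with 0.1% casein, 250 μM IBMX, 1% DMSO, 30 min at 37 °C. cAMP was read by HTRF against a standard curve, expressed as % of human GIP (1-42) OH maximum; EC50 and Emax came from four-parameter fits.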

| Compound | Emax [%] | EC50 [nM] |
| --- | --- | --- |
| Cn1cc(C[C@@H](NC(=O)[C@H]2C[C@@H]2c2ccc(-c3cnc4nn(C)cc4c3)cc2)C(=O)NC(C)(C)Cn2nc(C(F)(F)F)cc2-c2cnn(C3COC3)c2)cn1 [Example 54, (1S,2S)-N-((R)-1-((2-Methyl-1-(1′-(oxetan-3-yl)-5-(trifluoromethyl)-1′H,2H-[3,4′-bipyrazol]-2-yl)propan-2-yl)amino)-3-(1-methyl-1H-pyrazol-4-yl)-1-oxopropan-2-yl)-2-(4-(2-methyl-2H-pyrazolo[3,4-b]pyridin-5-yl)phenyl) cyclopropane-1-carboxamide] | 137 ± 14.1 | 76.8 |
| Cn1cc(C[C@@H](NC(=O)[C@H]2C[C@@H]2c2ccc(-c3cnc4nn(C)cc4c3)cc2)C(=O)NC(C)(C)Cn2nc(C(F)(F)F)cc2-c2cnn(CC3COC3)c2)cn1 [Example 55, (1S,2S)-N-((R)-1-((2-Methyl-1-(1′-(oxetan-3-ylmethyl)-5-(trifluoromethyl)-1′H,2H-[3,4′-bipyrazol]-2-yl)propan-2-yl)amino)-3-(1-methyl-1H-pyrazol-4-yl)-1-oxopropan-2-yl)-2-(4-(2-methyl-2H-pyrazolo[3,4-b]pyridin-5-yl)phenyl) cyclopropane-1-carboxamide] | 109 ± 0.179 | 49.1 |
| Cn1cc(C[C@@H](NC(=O)[C@H]2C[C@@H]2c2ccc(-c3cnc4nn(C)cc4c3)cc2)C(=O)NC(C)(C)Cn2nc(C(F)(F)F)cc2-c2cnn3c2CN(C(=O)OC(C)(C)C)CC3)cn1 [Example 56, tert-Butyl 3-(1-(2-methyl-2-((R)-3-(1-methyl-1H-pyrazol-4-yl)-2-((1S,2S)-2-(4-(2-methyl-2H-pyrazolo[3,4-b]pyridin-5-yl)phenyl)cyclopropane-1-carboxamido)propanamido)propyl)-3-(trifluoromethyl)-1H-pyrazol-5-yl)-6,7-dihydropyrazolo[1,5-a]pyrazine-5(4H)-carboxylate] | 113 ± 10.7 | 84.6 |
| Cn1cc(C[C@@H](NC(=O)[C@H]2C[C@@H]2c2ccc(-c3cnc4nn(C)cc4c3)cc2)C(=O)NC(C)(C)Cn2nc(C(F)(F)F)cc2-c2cc3c(=O)[nH]cnn3c2)cn1 [Example 57, (1S,2S)-N-((R)-1-((2-Methyl-1-(5-(4-oxo-3,4-dihydropyrrolo[2,1-f][1,2,4]triazin-6-yl)-3-(trifluoromethyl)-1H-pyrazol-1-yl)propan-2-yl)amino)-3-(1-methyl-1H-pyrazol-4-yl)-1-oxopropan-2-yl)-2-(4-(2-methyl-2H-pyrazolo[3,4-b]pyridin-5-yl)phenyl) cyclopropane-1-carboxamide] | 112 ± 14.8 | 61 |
| CN(C(=O)[C@H]1C[C@@H]1c1ccc(-c2cnc3nn(C)cc3c2)cc1F)[C@H](Cc1cnn(C)c1)C(=O)NC(C)(C)Cn1nc(C(F)(F)F)cc1-c1ccc(=O)n(C)c1 [Example 61, (1S,2S)-2-(2-Fluoro-4-(2-methyl-2H-pyrazolo [3,4-b]pyridin-5-yl)phenyl)-N-methyl-N-((R)-1-((2-methyl-1-(5-(1-methyl-6-oxo-1,6-dihydropyridin-3-yl)-3-(trifluoromethyl)-1H-pyrazol-1-yl)propan-2-yl)amino)-3-(1-methyl-1H-pyrazol-4-yl)-1-oxopropan-2-yl) cyclopropane-1-carboxamide] | 88.5 ± 2.66 | 56.8 |
| Cn1cc2cc(-c3ccc([C@H]4C[C@@]45CCN([C@H](Cc4cnn(C(F)F)c4)C(=O)NC(C)(C)Cn4nc(C(F)(F)F)cc4-c4ccc(=O)n(C)c4)C5=O)cc3)cnc2n1 [Example 63, (R)-3-(1-(Difluoromethyl)-1H-pyrazol-4-yl)-N-(2-methyl-1-(5-(1-methyl-6-oxo-1,6-dihydropyridin-3-yl)-3-(trifluoromethyl)-1H-pyrazol-1-yl)propan-2-yl)-2-((1R,3R)-1-(4-(2-methyl-2H-pyrazolo[3,4-b]pyridin-5-yl)phenyl)-4-oxo-5-azaspiro[2.4]heptan-5-yl)propanamide] | 62.1 ± 3.55 | 21.6 |
| COCn1ncc(-c2cc(C(F)(F)F)nn2CC(C)(C)NC(=O)[C@@H](Cc2cnn(C)c2)NC(=O)[C@H]2C[C@@H]2c2ccc(-c3cnc4nn(C)cc4c3)cc2)n1 [Example 65, (1S,2S)-N—((R)-1-((1-(5-(2-(Methoxymethyl)-2H-1,2,3-triazol-4-yl)-3-(trifluoromethyl)-1H-pyrazol-1-yl)-2-methylpropan-2-yl)amino)-3-(1-methyl-1H-pyrazol-4-yl)-1-oxopropan-2-yl)-2-(4-(2-methyl-2H-pyrazolo[3,4-b]pyridin-5-yl)phenyl)cyclopropane-1-carboxamide] | 113 ± 4.23 | 38.1 |
| Cn1cc(C[C@@H](NC(=O)[C@H]2C[C@@H]2c2ccc(-c3cnc4nn(C)cc4c3)cc2)C(=O)NC(C)(C)Cn2nc(C(F)(F)F)cc2-c2cnn(C)n2)cn1 [Example 66, (1S,2S)-N—((R)-1-((2-Methyl-1-(5-(2-methyl-2H-1,2,3-triazol-4-yl)-3-(trifluoromethyl)-1H-pyrazol-1-yl)propan-2-yl)amino)-3-(1-methyl-1H-pyrazol-4-yl)-1-oxopropan-2-yl)-2-(4-(2-methyl-2H-pyrazolo[3,4-b]pyridin-5-yl)phenyl)cyclopropane-1-carboxamide] | 118 ± 0.533 | 99.3 |
| Cn1cc(C[C@@H](NC(=O)[C@H]2C[C@@H]2c2ccc(-c3cnc4nn(C)cc4c3)cc2)C(=O)NC(C)(C)Cn2nc(C(F)(F)F)cc2-c2ccn(C[C@H]3C[C@H](F)C3)n2)cn1 [Example 67, (1S,2S)-N—((R)-1-((1-(1-(((trans)-3-fluorocyclobutyl)methyl)-5′-(trifluoromethyl)-1H,2′H-[3,3′-bipyrazol]-2′-yl)-2-methylpropan-2-yl)amino)-3-(1-methyl-1H-pyrazol-4-yl)-1-oxopropan-2-yl)-2-(4-(2-methyl-2H-pyrazolo[3,4-b]pyridin-5-yl)phenyl)cyclopropane-1-carboxamide] | 115 ± 8.68 | 45 |

Results, then the compound that gave them:

| Emax [%] | EC50 [nM] | Compound |
| --- | --- | --- |
| 98.4 ± 3.96 | 53 | Cn1cc(C[C@@H](NC(=O)[C@H]2C[C@@H]2c2ccc(-c3cnc4nn(C)cc4c3)cc2)C(=O)NC(C)(C)Cn2nc(C(F)(F)F)cc2-c2ccn(C)c(=O)c2)cn1 [Example 52, (1S,2S)-N—((R)-1-((2-Methyl-1-(5-(1-methyl-2-oxo-1,2-dihydropyridin-4-yl)-3-(trifluoromethyl)-1H-pyrazol-1-yl)propan-2-yl)amino)-3-(1-methyl-1H-pyrazol-4-yl)-1-oxopropan-2-yl)-2-(4-(2-methyl-2H-pyrazolo[3,4-b]pyridin-5-yl)phenyl)cyclopropane-1-carboxamide] |
| 110 ± 1.71 | 23.8 | Cn1cc(C[C@@H](NC(=O)[C@H]2C[C@@H]2c2ccc(-c3cnc4nn(C)cc4c3)cc2)C(=O)NC(C)(C)Cn2nc(C(F)(F)F)cc2-c2cccn(C)c2=O)cn1 [Example 58, (1S,2S)-N-((R)-1-((2-Methyl-1-(5-(1-methyl-2-oxo-1,2-dihydropyridin-3-yl)-3-(trifluoromethyl)-1H-pyrazol-1-yl)propan-2-yl)amino)-3-(1-methyl-1H-pyrazol-4-yl)-1-oxopropan-2-yl)-2-(4-(2-methyl-2H-pyrazolo[3,4-b]pyridin-5-yl)phenyl) cyclopropane-1-carboxamide] |
| 122 ± 2.6 | 49.1 | Cn1cc(C[C@@H](NC(=O)[C@H]2C[C@@H]2c2ccc(-c3cnc4nn(C)cc4c3)cc2)C(=O)NC(C)(C)Cn2nc(C(F)(F)F)cc2-c2ccc(=O)[nH]c2)cn1 [Example 59, (1S,2S)-N-((R)-1-((2-Methyl-1-(5-(6-oxo-1,6-dihydropyridin-3-yl)-3-(trifluoromethyl)-1H-pyrazol-1-yl)propan-2-yl)amino)-3-(1-methyl-1H-pyrazol-4-yl)-1-oxopropan-2-yl)-2-(4-(2-methyl-2H-pyrazolo[3,4-b]pyridin-5-yl)phenyl) cyclopropane-1-carboxamide] |
| 67.8 ± 10.2 | 17.5 | Cn1cc2cc(-c3ccc([C@H]4C[C@@H]4C(=O)N[C@H](Cc4cnc5ncccn45)C(=O)NC(C)(C)Cn4nc(C(F)(F)F)cc4-c4ccc(=O)n(C)c4)cc3)cnc2n1 [Example 62, (1S,2S)-N-((R)-3-(imidazo[1,2-a]pyrimidin-3-yl)-1-((2-methyl-1-(5-(1-methyl-6-oxo-1,6-dihydropyridin-3-yl)-3-(trifluoromethyl)-1H-pyrazol-1-yl)propan-2-yl)amino)-1-oxopropan-2-yl)-2-(4-(2-methyl-2H-pyrazolo[3,4-b]pyridin-5-yl)phenyl) cyclopropane-1-carboxamide] |
| 128 | 61.9 | Cn1cc(C[C@@H](NC(=O)[C@H]2C[C@@H]2c2ccc(-c3cnc4nn(C)cc4c3)cc2)C(=O)NC(C)(C)Cn2nc(C(F)(F)F)cc2-c2cccc(=O)[nH]2)cn1 [Example 64, (1S,2S)-N—((R)-1-((2-Methyl-1-(5-(6-oxo-1,6-dihydropyridin-2-yl)-3-(trifluoromethyl)-1H-pyrazol-1-yl)propan-2-yl)amino)-3-(1-methyl-1H-pyrazol-4-yl)-1-oxopropan-2-yl)-2-(4-(2-methyl-2H-pyrazolo[3,4-b]pyridin-5-yl)phenyl)cyclopropane-1-carboxamide] |
